Experimental data taken from ChEMBL document CHEMBL1201862, “PubChem BioAssay data set” (2004).
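A five-concentration, 48-hour dose response in 96-well plates underlies each endpoint, interpolated linearly between surrounding concentrations. GI50 = concentration required for 50% inhibition of growth.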 The source made the active and inactive calls. Rule as the data show it: active = GI50 up to about 1.1 µM and inactive = higher. Peptide text beside a SMILES is read from it. * marks the point of attachment. Boc = CC(C)(C)OC(=O)*

Key:
Test in all cases: growth of human tumour cells (NCI), 48 h
786-0 = test system: 786-0
A549 = test system: A549
ACHN = test system: ACHN
BT-549 = test system: BT-549
CAKI-1 = test system: CAKI-1
CCRF-CEM = test system: CCRF-CEM
COLO 205 = test system: COLO 205
DU-145 = test system: DU-145
EKVX = test system: EKVX
HCC 2998 = test system: HCC 2998
HCT-116 = test system: HCT-116
HCT-15 = test system: HCT-15
HL-60 = test system: HL-60
HOP-92 = test system: HOP-92
HT-29 = test system: HT-29
Hs-578T = test system: Hs-578T
IGROV-1 = test system: IGROV-1
K562 = test system: K562
KM12 = test system: KM12
LOX IMVI = test system: LOX IMVI
MCF7 = test system: MCF7
MDA-MB-231 = test system: MDA-MB-231
MDA-MB-435 = test system: MDA-MB-435
MDA-N = test system: MDA-N
MOLT-4 = test system: MOLT-4
Malme-3M = test system: Malme-3M
NCI-H226 = test system: NCI-H226
NCI-H23 = test system: NCI-H23
NCI-H460 = test system: NCI-H460
NCI-H522 = test system: NCI-H522
NCI/ADR-RES = test system: NCI/ADR-RES
OVCAR-3 = test system: OVCAR-3
OVCAR-4 = test system: OVCAR-4
OVCAR-5 = test system: OVCAR-5
OVCAR-8 = test system: OVCAR-8
PC-3 = test system: PC-3
RPMI-8226 = test system: RPMI-8226
RXF 393 = test system: RXF 393
SF-268 = test system: SF-268
SF-295 = test system: SF-295
SF-539 = test system: SF-539
SK-MEL-28 = test system: SK-MEL-28
SK-MEL-2 = test system: SK-MEL-2
SK-MEL-5 = test system: SK-MEL-5
SK-OV-3 = test system: SK-OV-3
SN12C = test system: SN12C
SNB-19 = test system: SNB-19
SNB-75 = test system: SNB-75
SR = test system: SR
SW-620 = test system: SW-620
T47D = test system: T47D
TK-10 = test system: TK-10
U-251 = test system: U-251
UACC-257 = test system: UACC-257
UACC-62 = test system: UACC-62
UO-31 = test system: UO-31
A498 = test system: A498
HOP-62 = test system: HOP-62
M14 = test system: M14

Measured: GI50

COc1ccc2nc(-c3cccc(N(C)C)c3)cc(O)c2c1
active: 786-0 0.408 µM | A549 0.147 µM | ACHN 0.618 µM | CAKI-1 0.327 µM | CCRF-CEM 0.255 µM | COLO 205 0.198 µM | DU-145 0.384 µM | HCC 2998 0.608 µM | HCT-116 0.101 µM | HL-60 0.187 µM | HOP-92 0.469 µM | HT-29 0.198 µM | Hs-578T 0.188 µM | IGROV-1 0.553 µM | K562 0.242 µM | KM12 0.337 µM | LOX IMVI 0.334 µM | MCF7 0.413 µM | MDA-MB-231 0.594 µM | MDA-MB-435 0.0726 µM | MDA-N 0.0608 µM | MOLT-4 0.344 µM | Malme-3M 0.177 µM | NCI-H226 0.266 µM | NCI-H23 0.111 µM | NCI-H460 0.348 µM | NCI-H522 0.204 µM | NCI/ADR-RES 0.185 µM | OVCAR-3 0.169 µM | OVCAR-5 0.541 µM | OVCAR-8 0.186 µM | PC-3 0.362 µM | RPMI-8226 0.318 µM | RXF 393 0.173 µM | SF-268 0.378 µM | SF-295 0.246 µM | SF-539 0.151 µM | SK-MEL-28 0.419 µM | SK-MEL-2 0.314 µM | SK-MEL-5 0.211 µM | SK-OV-3 0.327 µM | SN12C 0.353 µM | SNB-19 0.451 µM | SNB-75 0.299 µM | SR 0.142 µM | SW-620 0.264 µM | U-251 0.247 µM | UACC-257 0.485 µM | UACC-62 0.252 µM | UO-31 0.782 µM
inactive: BT-549 1.15 µM | EKVX 1.55 µM | OVCAR-4 5.64 µM | T47D > 10 µM | TK-10 4.74 µM
0.317 µM: HCT-15

Cc1nnc2ccccc2c1O
inactive: 786-0 > 100 µM | A498 > 100 µM | A549 > 100 µM | ACHN > 100 µM | BT-549 > 100 µM | CAKI-1 > 100 µM | COLO 205 > 100 µM | DU-145 > 100 µM | EKVX > 100 µM | HCT-116 > 100 µM | HOP-62 > 100 µM | HOP-92 > 100 µM | HT-29 > 100 µM | Hs-578T > 100 µM | IGROV-1 > 100 µM | K562 2.52 µM | KM12 > 100 µM | LOX IMVI > 100 µM | M14 > 100 µM | MCF7 > 100 µM | MDA-MB-231 > 100 µM | MDA-MB-435 > 100 µM | MDA-N > 100 µM | MOLT-4 6.34 µM | Malme-3M > 100 µM | NCI-H226 > 100 µM | NCI-H23 > 100 µM | NCI-H460 > 100 µM | NCI-H522 > 100 µM | NCI/ADR-RES > 100 µM | OVCAR-3 > 100 µM | OVCAR-4 > 100 µM | OVCAR-5 > 100 µM | OVCAR-8 > 100 µM | PC-3 > 100 µM | RPMI-8226 > 100 µM | RXF 393 > 100 µM | SF-268 > 100 µM | SF-295 > 100 µM | SF-539 > 100 µM | SK-MEL-28 > 100 µM | SK-MEL-2 > 100 µM | SK-MEL-5 > 100 µM | SK-OV-3 > 100 µM | SN12C > 100 µM | SNB-19 > 100 µM | SNB-75 > 100 µM | SR 25.9 µM | SW-620 > 100 µM | T47D > 100 µM | TK-10 > 100 µM | U-251 > 100 µM | UACC-257 > 100 µM | UACC-62 > 100 µM | UO-31 > 100 µM
> 100 µM: HCT-15

CC(C)COP(=O)(OCC(C)C)C(NS(=O)(=O)c1ccccc1)(C(F)(F)F)C(F)(F)F
3.94 µM: HCT-15
inactive: 786-0 7.53 µM | A549 3.82 µM | ACHN 2.99 µM | BT-549 4.03 µM | CAKI-1 5.52 µM | CCRF-CEM 3.36 µM | COLO 205 1.94 µM | DU-145 5.71 µM | EKVX 4.91 µM | HCC 2998 5.13 µM | HCT-116 5.24 µM | HL-60 1.22 µM | HOP-62 11.3 µM | HOP-92 2.2 µM | HT-29 4.44 µM | Hs-578T 9.33 µM | IGROV-1 4.41 µM | K562 4.8 µM | KM12 3.93 µM | LOX IMVI 3.57 µM | M14 12.8 µM | MCF7 7.57 µM | MDA-MB-231 2.04 µM | MDA-MB-435 4.45 µM | MDA-N 5.51 µM | MOLT-4 1.41 µM | Malme-3M 11.9 µM | NCI-H226 16.9 µM | NCI-H23 3.81 µM | NCI-H522 4.05 µM | NCI/ADR-RES 4.13 µM | OVCAR-3 4.82 µM | OVCAR-4 3.4 µM | OVCAR-5 14.2 µM | OVCAR-8 6.46 µM | PC-3 3.68 µM | RPMI-8226 1.66 µM | RXF 393 3.96 µM | SF-268 7.21 µM | SF-295 5.6 µM | SF-539 8.34 µM | SK-MEL-28 13.6 µM | SK-MEL-2 3.4 µM | SK-MEL-5 5.12 µM | SK-OV-3 5.47 µM | SN12C 3.22 µM | SNB-19 10.2 µM | SNB-75 2.91 µM | SR 2.08 µM | SW-620 4.15 µM | T47D 3.38 µM | TK-10 3.68 µM | U-251 3.77 µM | UACC-257 4.24 µM | UACC-62 4.81 µM | UO-31 2.22 µM

c1ccc2c(c1)cc1c3[nH]c4ccccc4c3ccn21
inactive: 786-0 > 10 µM | A549 > 10 µM | ACHN > 10 µM | BT-549 > 10 µM | CAKI-1 > 10 µM | CCRF-CEM 8.32 µM | COLO 205 1.61 µM | DU-145 > 10 µM | EKVX > 10 µM | HCC 2998 > 10 µM | HCT-116 6.92 µM | HOP-62 > 10 µM | HOP-92 > 10 µM | HT-29 > 10 µM | Hs-578T > 10 µM | IGROV-1 > 10 µM | K562 > 10 µM | KM12 > 10 µM | LOX IMVI > 10 µM | M14 > 10 µM | MCF7 1.19 µM | MDA-MB-231 > 10 µM | MDA-MB-435 > 10 µM | MDA-N > 10 µM | MOLT-4 > 10 µM | Malme-3M 1.65 µM | NCI-H226 > 10 µM | NCI-H23 > 10 µM | NCI-H460 > 10 µM | NCI-H522 > 10 µM | NCI/ADR-RES > 10 µM | OVCAR-3 > 10 µM | OVCAR-4 > 10 µM | OVCAR-5 > 10 µM | OVCAR-8 > 10 µM | PC-3 > 10 µM | RPMI-8226 4.59 µM | RXF 393 > 10 µM | SF-268 > 10 µM | SF-295 > 10 µM | SF-539 > 10 µM | SK-MEL-28 > 10 µM | SK-MEL-2 > 10 µM | SK-MEL-5 > 10 µM | SK-OV-3 > 10 µM | SN12C > 10 µM | SNB-19 > 10 µM | SNB-75 > 10 µM | SR > 10 µM | SW-620 6.78 µM | T47D > 10 µM | TK-10 > 10 µM | U-251 > 10 µM | UACC-257 > 10 µM | UACC-62 > 10 µM | UO-31 > 10 µM
> 10 µM: HCT-15
active: HL-60 0.687 µM

CSCCC(NC(=O)C(CC(C)C)NC(=O)CNC(=O)OC(C)(C)C)C(=O)N(C)C (stereo not drawn) (Boc-Gly-Leu-Met-NMe2; configuration not given here)
active: SNB-75 0.0272 µM
> 100 µM: HCT-15
inactive: 786-0 > 100 µM | A498 > 100 µM | A549 > 100 µM | ACHN > 100 µM | BT-549 > 100 µM | CAKI-1 > 100 µM | CCRF-CEM > 100 µM | COLO 205 > 100 µM | DU-145 > 100 µM | EKVX > 100 µM | HCT-116 > 100 µM | HL-60 > 100 µM | HOP-92 > 100 µM | HT-29 > 100 µM | Hs-578T 4 µM | IGROV-1 > 100 µM | K562 > 100 µM | KM12 > 100 µM | LOX IMVI > 100 µM | M14 > 100 µM | MCF7 > 100 µM | MDA-MB-231 > 100 µM | MDA-MB-435 > 100 µM | MDA-N > 100 µM | MOLT-4 > 100 µM | Malme-3M 87.7 µM | NCI-H226 > 100 µM | NCI-H23 > 100 µM | NCI-H522 > 100 µM | NCI/ADR-RES > 100 µM | OVCAR-4 > 100 µM | OVCAR-5 > 100 µM | OVCAR-8 > 100 µM | PC-3 > 100 µM | RXF 393 > 100 µM | SF-268 > 100 µM | SF-295 > 100 µM | SF-539 > 100 µM | SK-MEL-28 > 100 µM | SK-MEL-2 > 100 µM | SK-MEL-5 > 100 µM | SK-OV-3 > 100 µM | SN12C > 100 µM | SNB-19 > 100 µM | SR > 100 µM | SW-620 > 100 µM | T47D > 100 µM | TK-10 > 100 µM | U-251 > 100 µM | UACC-257 > 100 µM | UACC-62 > 100 µM | UO-31 > 100 µM
